Consider five molecules from patent publication US6346258B1, “Physiological combination of active substances to enhance the skin's defenses against noxious agents” (priority 1997, dated 2002).

The test system of this assay is chorioallantoic membrane. As to the kind of experiment: hen's egg test on the chorioallantoic membrane (HET-CAM): protective effect against the irritant 2% sodium dodecylsulfate. Also on record: species or system hen's eggs, American White Leghorn (Shaver Starcross 288). The note with it: for protective effect (in words): applied 5 min before 2% sodium dodecylsulfate, compared to distilled water, NaCl 0.05/0.5/1.0%, CaCl2 0.05/0.5/5%, sorbitol 0.01/0.1/1% by weight; for Response (x) after 30 s / Response (x) after 2 min / Response (x) after 5 min: rating 0 (no response) to 7 (coagulation), 0.2 ml aqueous test substance, 5 min later 0.2 ml 2% sodium dodecylsulfate; for Response (x) after 30 s: read after 30 s; for Response (x) after 2 min: read after 2 min; for Response (x) after 5 min: read after 5 min. The method, then: Evidence of the activity in terms of enhancing the skin's defenses against noxious agents was furnished in a hen's egg test on the chorioallantoic membrane (HET-CAM), an established predictional test for detecting the irritation potency for the skin and mucosa. For testing, eggs of the race “American White Leghorn” ([…] 288) were employed. The eggs were incubated for 9 d (start of incubation=day 1) in a small-size motor incubator having an automatic turning over device and an automatic moisturizing control (type […] GmbH) at 37±1° C. and 65±5% of relative humidity. At day 9, the eggs were transilluminated for detecting fertilization, the non-fertilized eggs were sorted out, the remaining eggs were placed upright with the blunt pole (air bubble) up and incubated for another 24 h without turning over. At day 10, the egg pole was removed with fine scissors and tweezers, and the chorioallantoic membrane exposed. The following items were tested: irritant effect of the combination of active substances and its components protective effect Thus, 0.2 ml each of the aqueous solution of the test substance was applied, and after an interval of 5 min, 0.2 ml of a 2% solution of the irritant sodium dodecylsulfate was applied. The outcome of the response was compared to the effect obtained with water (placebo) according to the following rating: 0 no response 1 hyperemia-slight 2 hyperemia-medium 3 hyperemia-strong 4 hemorrhage-isolated 5 hemorrhage-frequent 6 hemorrhage-massive 7 coagulation […]

Take `[Ca+2].[Cl-].[Cl-]` [CaCl2, calcium chloride]: the “protective effect (in words)” value is “did not display any protective effects”.

Take `N#C[S-].[Na+]` [Comp. 2, NaSCN]: the “protective effect (in words)” value was “display a skin protective activity”, the “Response (x) after 30 s” value is 2.8, the “Response (x) after 2 min” value worked out at 3.1 and the “Response (x) after 5 min” value turned out to be 3.8.

Consider `NC(N)=O` [Comp. 3, urea], for which the “protective effect (in words)” value was “display a skin protective activity”, the “Response (x) after 30 s” value was 2.8, the “Response (x) after 2 min” value was found to be 3.6 and the “Response (x) after 5 min” value is 4.0.

For the molecule `[Cl-].[Na+]` [NaCl, sodium chloride], the “protective effect (in words)” value is “did not display any protective effects”.

Turning to `OC[C@@H](O)[C@@H](O)[C@H](O)[C@@H](O)CO` [sorbitol], the “protective effect (in words)” value is “did not display any protective effects”.
